According to US11352350B2, “IRAK degraders and uses thereof” (Kymera Therapeutics, Inc., priority 2018, dated 2022):

Assays:
OCI-LY10 = assay: CTG Cell Viability Assay - OCI-LY10; format: cell-based, human; conditions: Homo sapiens, OCI-Ly10, 96 h, OCI-LY10, 4 days; read-out: CTG Cell Viability Assay - OCI-LY10: Average external-IC50
In short: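 OCI-LY10 cells exposed to 9-dose, 1:3 dilutions from 10 μM top (0.2% DMSO) for 4 days at 37° C, 5% CO2. Viability by CellTiter-Glo luminescence; IC50 from three-parameter logistic fit.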

IRAK4 [1] = biological target: T1, IRAK4 (Homo sapiens (Human), UniProt Q9NWZ3); assay: IRAK4 degradation in human whole blood lymphocyte - flow cytometry; format: cell-based; conditions: read-out: IRAK4 degradation in whole blood lymphocyte-Flow cytometry: Average external Abs IC50
T1 sequence (Q9NWZ3 whole entry): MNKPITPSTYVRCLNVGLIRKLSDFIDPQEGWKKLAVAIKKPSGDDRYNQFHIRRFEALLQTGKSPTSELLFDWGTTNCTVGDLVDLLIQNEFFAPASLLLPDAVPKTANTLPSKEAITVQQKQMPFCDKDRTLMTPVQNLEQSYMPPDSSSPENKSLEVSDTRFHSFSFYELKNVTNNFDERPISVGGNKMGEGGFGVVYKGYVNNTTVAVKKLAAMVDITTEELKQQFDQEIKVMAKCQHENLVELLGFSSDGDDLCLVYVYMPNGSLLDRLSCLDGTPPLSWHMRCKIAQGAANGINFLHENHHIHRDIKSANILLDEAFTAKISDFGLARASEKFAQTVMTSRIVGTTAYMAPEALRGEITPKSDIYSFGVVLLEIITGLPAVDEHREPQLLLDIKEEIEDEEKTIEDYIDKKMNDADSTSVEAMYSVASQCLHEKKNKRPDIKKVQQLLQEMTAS
Protocol: (§1) Human whole blood IRAK4 degradation flow assay. Whole blood was collected in heparinized tubes and plated on the same day as draw (day 0). Whole blood was aliquoted into deep well plates. Compound plates were prepared and a 10 point, 5-fold dilution was performed with a final DMSO concentration of 0.1%. Compound was added to whole blood deep well plate, sealed and incubated at 37° C., 5% CO2 for 20 hours (for 4 hour treatment, compounds were prepared and added the following day). Following the treatment incubation period (day 1), BD lyse fix (BD #558049) was added to the whole blood plate, placed on plate shaker for 30 seconds and incubated for 10 mins at room temperature. Whole blood was then spun down and washed two times with PBS/0.5% BSA, aspirated to pellet and placed into −80° C. freezer until further processing for flow. On the flow run day, whole blood plates were thawed and samples were transferred to PCR plates. The pre-perm staining cocktail (CD3 Ax488/CD8 BUV805/CD14 BUV395/CD16/56 BV711/CD19 BV785) was added to samples and incubated for 30 minutes at room temperature. Samples were washed two times and permeabilized with Methanol for 10 minutes at 4° C. Samples were washed two times and the post-perm staining cocktail (CD4 PE/IRAK4 Ax647 BD #560315) was added and incubated for 30 minutes at room temperature. Samples were washed two times with PBS/BSA and run on a BD LSRFortessa. Mononuclear cells are gated by SSCH/FSCH and single cells. Monocytes are then gated through CD14 positive gate and lymphocytes are gated through CD14 negative gate. To determine absolute DC50 and max degradation values, MFI values were normalized to DMSO max and 20 hour 10 μM min control. Twenty hour dose curves were calculated using a 4 parameter logistic regression curve fit, no constraints (Top doses were removed if hook effects were observed and the bottom was constrained to 0).

TNFα [2] = assay: Human PBMC LPS TNFα assay; format: cell-based; conditions: hPBMC, LPS stimulation, read-out: IRAK4 hPBMC LPS TNF-α inhibition: Average external-IC50
Protocol: Human PBMC LPS TNFα assay. Frozen PBMCs were thawed into RPMI with 10% FBS/1% penicillin/streptomycin and same day plated into 96 well plates at 200,000 PBMC/[…] media per well. Compound plates were prepared in DMSO with D300 cassette as 8-point dose curves in duplicate, starting dose 2 μM, 5-fold. Compounds are added 200 nL into cells for final 200 μL per well. Compound and cells were incubated at 37° C., 5% CO2 for 20 hours. After twenty hours of pretreatment with the compounds, LPS (01 1 1:B4) (Sigma #L2637) was added at 100 ng/ml final concentration and PBMCs incubated an additional five hours at 37° C., 5% CO2. Following assay completion, PBMC plates were spun down at 2000 rpm for 10 minutes. 100 uL of supernatant was carefully removed and placed into a new 96 well Costar (#3879) plate and stored at −80° C. until further analysis. Meso scale Discovery (MSD) human V-plex assays were used to measure cytokine levels. On day of cytokine analysis, supernatant samples were thawed, diluted with V-plex diluent #2, and directly to MSD plates. Assay was further completed per standard manufacturer's protocol. Cytokine data was normalized to LPS stimulated and unstimulated controls. Prism Graphpad was used to generate IC50 using 4 parameter logistic regression curve, free-fit.

TNFα [3] = assay: Human whole blood LPS TNFα assay; format: cell-based; conditions: 20 h pretreatment, LPS 5 h, read-out: IRAK4 human whole blood LPS TNFa inhibition: Average external-IC50
Protocol: Human Whole blood LPS TNFα assay. Whole blood was collected fresh and plated same day into 96 well plates at 180 μL per well. Compound plates were prepared in DMSO as 8-point dose curves in duplicate, starting dose 2 μM, 5-fold. Compounds are added 20 μL into blood for final 200 μL per well. Compound and cells were incubated at 37° C., 5% CO2 for 20 hours. After twenty hours of pretreatment with the compounds, LPS (01 1 1:B4) (Sigma #L2637) was added at 100 ng/ml final concentration and blood incubated an additional five hours at 37° C., 5% CO2. Following assay completion, whole blood plates were spun down at 2000 rpm for 15 minutes at 4° C. 50 μL of plasma was carefully removed and placed into a new 96 well Costar (#3879) plate and stored at −80° C. until further analysis. Meso scale Discovery (MSD) human V-plex assays were used to measure cytokine levels. On day of cytokine analysis, plasma samples were thawed, diluted with V-plex diluent #2, and directly to MSD plates. Assay was further completed per standard manufacturer's protocol. Cytokine data was normalized to LPS stimulated and unstimulated controls. Prism Graphpad was used to generate IC50 using 4 parameter logistic regression curve, free-fit.

IRAK4 [4] = biological target: T1, IRAK4; assay: IRAK4 degradation in human whole blood monocyte - flow cytometry; format: cell-based; conditions: read-out: IRAK4 degradation in whole blood monocyte-Flow cytometry: Average external Abs IC50
Protocol: as §1

IRAK4 [5] = biological target: T1, IRAK4; assay: IRAK4 MSD degradation in OCI-LY10; format: cell-based; conditions: MSD
In short: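 OCI-LY10 cells treated with 8-point 1:3 dilutions (top 1 to 10 μM final) for 4 to 24 h at 37° C. Lysate IRAK4 measured by MSD sandwich immunoassay (2H9 capture, Y279 detection, SULFO-TAG anti-rabbit). DC50 from three-parameter logistic fit.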

[6] = OCI-LY10, 4 hrs, read-out: IRAK4 MSD degradation in OCI-LY10 at 4 hrs: Average external-Abs DC50
[7] = OCI-LY10, 24 hrs, read-out: IRAK4 MSD degradation in OCI-LY10 at 24 hrs: Average external-Abs DC50

| SMILES | IC50 (OCI-LY10) | DC50 (IRAK4 [1]) | IC50 (TNFα [2]) | IC50 (TNFα [3]) | IC50 (IRAK4 [4]) | DC50 (IRAK4 [5]; [6]) | DC50 (IRAK4 [4]) | DC50 (IRAK4 [5]; [7]) |
| --- | --- | --- | --- | --- | --- | --- | --- | --- |
| CN(CCOCCOCCCc1cccc2c1n(C)c(=O)n2C1CCC(=O)NC1=O)C(=O)[C@H]1CC[C@H](n2cc(NC(=O)c3coc(-c4ccnc(NCC5CC5)c4)n3)c(C(F)F)n2)CC1 (some centres unmarked) [I-32] | 100 to 500 nM | 50 to 100 nM | 50 to 100 nM | > 1000 nM | < 50 nM | < 10 nM | – | – |
| Cn1c(=O)n(C2CCC(=O)NC2=O)c2cccc(CCCOCCOCCNC[C@H]3CC[C@H](n4cc(NC(=O)c5coc(-c6ccnc(NCC7CC7)c6)n5)c(C(F)F)n4)CC3)c21 (some centres unmarked) [I-2] | 100 to 500 nM | < 50 nM | 100 to 500 nM | > 1000 nM | < 50 nM | 100 to 1000 nM | – | – |
| CN(C[C@H]1CN(CCCc2ccc3c(c2)n(C)c(=O)n3C2CCC(=O)NC2=O)CCO1)C[C@H]1CC[C@H](n2cc(NC(=O)c3coc(-c4ccnc(NCC5CC5)c4)n3)c(C(F)F)n2)CC1 (some centres unmarked) [I-34] | > 1000 nM | < 50 nM | 100 to 500 nM | 100 to 500 nM | < 50 nM | < 10 nM | – | – |
| Cn1c(=O)n(C2CCC(=O)NC2=O)c2ccc(CCCN3CCO[C@@H](CNC[C@H]4CC[C@H](n5cc(NC(=O)c6coc(-c7ccnc(NCC8CC8)c7)n6)c(C(F)F)n5)CC4)C3)cc21 (some centres unmarked) [I-16] | 100 to 500 nM | 50 to 100 nM | 100 to 500 nM | > 1000 nM | < 50 nM | < 10 nM | – | – |
| Cn1c(=O)n(C2CCC(=O)NC2=O)c2ccc(CCCN3CCO[C@H](CNC[C@H]4CC[C@H](n5cc(NC(=O)c6coc(-c7ccnc(NCC8CC8)c7)n6)c(C(F)F)n5)CC4)C3)cc21 (some centres unmarked) [I-35] | < 50 nM | 50 to 100 nM | 100 to 500 nM | 500 to 1000 nM | < 50 nM | 10 to 100 nM | – | – |
| CN(CCCOCCCc1ccc2c(c1)c1cccnc1n2C1CCC(=O)NC1=O)C[C@H]1CC[C@H](n2cc(NC(=O)c3coc(-c4ccnc(NCC5CC5)c4)n3)c(C(F)F)n2)CC1 (some centres unmarked) [I-46] | 500 to 1000 nM | 100 to 500 nM | 100 to 500 nM | > 1000 nM | – | 10 to 100 nM | 500 to 1000 nM | 10 to 100 nM |
| Cn1c(=O)n(C2CCC(=O)NC2=O)c2cccc(CCCN3CCO[C@@H](CNC[C@H]4CC[C@H](n5cc(NC(=O)c6coc(-c7ccnc(NCC8CC8)c7)n6)c(C(F)F)n5)CC4)C3)c21 (some centres unmarked) [I-38] | < 50 nM | 50 to 100 nM | < 50 nM | 100 to 500 nM | < 50 nM | < 10 nM | – | – |
| Cn1c(=O)n(C2CCC(=O)NC2=O)c2ccc(CCCCOCCCCNC[C@H]3CC[C@H](n4cc(NC(=O)c5cnn6ccc(N7CCNCC7)nc56)c(C(F)F)n4)CC3)cc21 (some centres unmarked) [I-42] | > 1000 nM | < 50 nM | 100 to 500 nM | > 1000 nM | < 50 nM | 10 to 100 nM | – | – |
| O=C1CCC(N2C[C@H](c3ccc(C#CCN4CCO[C@@H](CNC[C@H]5CC[C@H](n6cc(NC(=O)c7coc(-c8ccnc(NCC9CC9)c8)n7)c(C(F)F)n6)CC5)C4)cc3)OC2=O)C(=O)N1 (some centres unmarked) [I-40] | < 50 nM | 100 to 500 nM | < 50 nM | 100 to 500 nM | < 50 nM | 10 to 100 nM | – | – |
| O=C1CCC(n2c3ccc(CCCOCCOCCNCC4CCC(n5cc(NC(=O)c6coc(-c7ccnc(NCC8CC8)c7)n6)c(C(F)F)n5)CC4)cc3c3cccnc32)C(=O)N1 (centres unmarked) [I-47] | 100 to 500 nM | 100 to 500 nM | 100 to 500 nM | > 1000 nM | – | 10 to 100 nM | 500 to 1000 nM | 10 to 100 nM |
| CN(C[C@@H]1CN(CCCc2ccc3c(c2)n(C)c(=O)n3C2CCC(=O)NC2=O)CCO1)C(=O)[C@H]1CC[C@H](n2cc(NC(=O)c3coc(-c4ccnc(NCC5CC5)c4)n3)c(C(F)F)n2)CC1 (some centres unmarked) [I-17] | 100 to 500 nM | 50 to 100 nM | < 50 nM | 500 to 1000 nM | < 50 nM | < 10 nM | – | – |
| Cn1c(=O)n(C2CCC(=O)NC2=O)c2cccc(CCCOCC3CN(C[C@H]4CC[C@H](n5cc(NC(=O)c6coc(-c7ccnc(NCC8CC8)c7)n6)c(C(F)F)n5)CC4)C3)c21 (some centres unmarked) [I-65] | < 50 nM | 50 to 100 nM | < 50 nM | > 1000 nM | < 50 nM | < 10 nM | – | – |
| CN(C[C@@H]1CN(CCCc2ccc3c(c2)n(C)c(=O)n3C2CCC(=O)NC2=O)CCO1)C[C@H]1CC[C@H](n2cc(NC(=O)c3coc(-c4ccnc(NCC5CC5)c4)n3)c(C(F)F)n2)CC1 (some centres unmarked) [I-36] | 500 to 1000 nM | < 50 nM | 100 to 500 nM | 100 to 500 nM | < 50 nM | 10 to 100 nM | – | – |
| Cn1c(=O)n(C2CCC(=O)NC2=O)c2ccc(CCOCCN3CCO[C@@H](CNC[C@H]4CC[C@H](n5cc(NC(=O)c6cnn7ccc(N8CCNCC8)nc67)c(C(F)F)n5)CC4)C3)cc21 (some centres unmarked) [I-41] | > 1000 nM | < 50 nM | 100 to 500 nM | 500 to 1000 nM | < 50 nM | < 10 nM | – | – |
| C=C(C)c1nn([C@H]2CC[C@H](C(=O)N(C)CCCOCCCc3cccc4c3n(C)c(=O)n4C3CCC(=O)NC3=O)CC2)cc1NC(=O)c1coc(-c2ccnc(NCC3CC3)c2)n1 (some centres unmarked) [I-31] | 100 to 500 nM | 100 to 500 nM | 100 to 500 nM | > 1000 nM | – | 100 to 1000 nM | 50 to 100 nM | – |
| CN(CCOCCOCCCc1ccc2c(c1)oc(=O)n2C1CCC(=O)NC1=O)C[C@H]1CC[C@H](n2cc(NC(=O)c3coc(-c4ccnc(NCC5CC5)c4)n3)c(C(F)F)n2)CC1 (some centres unmarked) [I-43] | > 1000 nM | 100 to 500 nM | 100 to 500 nM | 100 to 500 nM | – | 10 to 100 nM | 50 to 100 nM | – |
| Cn1c(=O)n(C2CCC(=O)NC2=O)c2cccc(CCCOCCNC[C@H]3CC[C@H](n4cc(NC(=O)c5coc(-c6ccnc(NCC(F)(F)F)c6)n5)c(C(N)=O)n4)CC3)c21 (some centres unmarked) [I-11] | > 1000 nM | < 50 nM | < 50 nM | > 1000 nM | < 50 nM | < 10 nM | – | – |
| Cn1c(=O)n(C2CCC(=O)NC2=O)c2cccc(CCCN3CCO[C@H](CNC[C@H]4CC[C@H](n5cc(NC(=O)c6coc(-c7ccnc(NCC8CC8)c7)n6)c(C(F)F)n5)CC4)C3)c21 (some centres unmarked) [I-37] | < 50 nM | < 50 nM | < 50 nM | 100 to 500 nM | < 50 nM | 10 to 100 nM | – | – |
